Measured values reported in ChEMBL document CHEMBL2146416 (Bioorg Med Chem, 2012).

target: 4-aminobutyrate aminotransferase, mitochondrial (Sus scrofa, UniProt P80147); assay: Competitive inhibition of pig GABA aminotransferase using alpha-ketoglutarate as substrate by SSADH-coupled assay
Sequence (P80147 whole entry): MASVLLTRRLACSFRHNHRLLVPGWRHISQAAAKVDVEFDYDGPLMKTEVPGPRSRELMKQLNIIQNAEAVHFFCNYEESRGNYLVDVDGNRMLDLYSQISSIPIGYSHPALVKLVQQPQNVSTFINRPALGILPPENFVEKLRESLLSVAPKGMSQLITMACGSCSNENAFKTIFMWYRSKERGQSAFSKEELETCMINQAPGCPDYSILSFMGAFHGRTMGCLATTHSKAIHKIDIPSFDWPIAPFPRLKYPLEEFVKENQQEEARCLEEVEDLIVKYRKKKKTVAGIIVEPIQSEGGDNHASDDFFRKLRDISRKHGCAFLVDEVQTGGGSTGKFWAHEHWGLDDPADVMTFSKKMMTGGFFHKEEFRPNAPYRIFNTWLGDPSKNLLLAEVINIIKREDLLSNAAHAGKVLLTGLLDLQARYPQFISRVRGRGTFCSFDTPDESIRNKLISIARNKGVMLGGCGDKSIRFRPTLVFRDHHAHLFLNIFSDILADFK

Row | SMILES | Ki
1 | NCc1ccc(C(=O)O)o1 | 1400 µM
2 | NCc1ccc(C(=O)O)s1 | 2490 µM
3 | NCc1ccc(C(=O)O)[nH]1 | 2140 µM
4 | NCc1coc(C(=O)O)c1 | 1640 µM
5 | NCc1csc(C(=O)O)c1 | 1350 µM
6 | NCc1c[nH]c(C(=O)O)c1 | 1590 µM
7 | NCc1cocc1C(=O)O | 2270 µM
8 | NCc1cscc1C(=O)O | 2860 µM
